Laboratory results taken from article PMC6753678, “Fueling Open Innovation for Malaria Transmission-Blocking Drugs: Hundreds of Molecules Targeting Early Parasite Mosquito Stages” (Frontiers in Microbiology, 2019).
Like-named read-outs stand apart in the source and are kept apart here.

Legend:
[1] = system: P. berghei ookinete development; conditions: for % inhibition, Replicate A / % inhibition, Replicate B: primary screen at 1 μM
[2] = system: 3D7-strain P. falciparum asexual parasites; test: P. falciparum asexual growth inhibition assay (Pf GIA); assay type: cell-based, Plasmodium falciparum; conditions: dose response confirmation; read-out: Pf asexual growth inhibition assays IC50
Outline: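 Read-out was lactate dehydrogenase activity measured by absorbance at 650 nm after freezing and thawing, against 50 μM chloroquine and DMSO controls. Before that, asexual 3D7 cultures (0.25% parasitemia, 2% hematocrit) had 72 h dose-response compound exposure at 37°C in 5% CO2/5% O2/90% N2; three independent replicates averaged.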

HepG2 cells = test: HepG2 cytotoxicity assay; conditions: for IC50: read-out: HepG2 cytotoxicity assay IC50, dose response confirmation; for Pb ODA (this manuscript) HepG2 cytoxicity: HepG2 cytotoxicity listed with the Pb ODA data set (this manuscript)
Outline: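 Percent inhibition derived from fluorescent viability readout, normalised to DMSO (negative) and 50 μM doxorubicin (positive). Compound incubation lasted 48 h at 37°C, 5% CO2, with 2,500 HepG2 cells/well in MEM plus 10% FBS and 1% NEAA.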

[3] = read-out: Pb ODA IC50, this manuscript
[4] = read-out: Pb Ookinete development assay IC50, dose response confirmation
[5] = HepG2 values of the three screens unified
[6] = read-out: Pb ODA (this manuscript) IC50, P. berghei ookinete development assay, this manuscript
[7] = unified HepG2 value across the three screens

| SMILES | Is compound selective in assay? Pb ODA active? ([1]; 1: YES, 0: NO) | % inhibition, Replicate A [1] | % inhibition, Replicate B [1] | IC50 [1, 3] | IC50 [1, 4] | IC50 [2] | HepG2 cytoxicity (Pb ODA, this manuscript) (HepG2 cells) | Unified cytotox (HepG2 cells; [5]) | IC50 (HepG2 cells) | Is compound selective in assay? Pb ODA active? [1] | IC50 [1, 6] | Pb ODA (this manuscript) HepG2 cytoxicity (HepG2 cells) | Unified cytotox (HepG2 cells; [7]) |
| --- | --- | --- | --- | --- | --- | --- | --- | --- | --- | --- | --- | --- | --- |
| Cc1[nH]c(C)c(-c2ccc(-c3cccc(Cl)c3)nc2)c(=O)c1Cl [TCMDC-136300] | 1 (1: YES) | 90.77% | 81.67% | 680 nM | 675 nM | 203 nM | 56.23 µM | 56.23 µM | 56200 nM | – | – | – | – |
| CN(C)S(=O)(=O)n1ccc2c3c(N)nc(N)nc3ccc21 [TCMDC-137973] | – | 72.90% | 52.14% | – | 1270 nM | 6 nM | – | – | 1.7 nM | 0 (key: 1: YES; 0: NO) | 1270 nM | 0.0017 µM | – |
| Cc1[nH]c(C)c(-c2ccc(-c3ccc(F)cc3)nc2)c(=O)c1Br [TCMDC-135925] | 1 (1: YES) | 61.34% | 86.73% | 540 nM | 542 nM | 319 nM | 33.11 µM | 33.11 µM | 33100 nM | – | – | – | – |
| CC(=O)Oc1c(Cl)c(C)nc(C)c1-c1ccc(Oc2ccc(OC(F)(F)F)cc2)cc1 [TCMDC-137385] | – | 89.00% | 125.42% | – | 1020 nM | 75 nM | – | – | 32000 nM | 1 (key: 1: YES; 0: NO) | 1020 nM | 31.99 µM | – |
| COc1ccc2nc3cc(Cl)ccc3c(NCCCO)c2c1 [TCMDC-124144] | – | 19.58% | 67.10% | – | 1300 nM | 210 nM | – | – | 7080 nM | 0 (key: 1: YES; 0: NO) | – | 7.08 µM | – |
| Cc1[nH]c(C)c(-c2ccc(-c3ccc(OC(F)(F)F)cc3)nc2)c(=O)c1Br [TCMDC-136016] | 1 (1: YES) | 59.20% | 74.30% | 450 nM | 446 nM | 326 nM | – | 100.00 µM | 100000 nM | – | – | – | – |
| COc1nc2c(CCN3CC[C@H](NCc4ccc5c(c4)NC(=O)CO5)[C@H](O)C3)c(Cl)cnc2cc1F.Cl [TCMDC-135805] | – | 46.55% | 63.06% | – | 770 nM | 1320 nM | – | – | 12000 nM | 1 (key: 1: YES; 0: NO) | – | 12.02 µM | – |
| Br.CC1(C)NC(N)=NC(=N)N1OCCCOc1cc(Cl)ccc1Cl [TCMDC-131679] | – | 77.33% | 60.56% | – | 3390 nM | < 0.2 nM | – | – | 1 nM | 0 (key: 1: YES; 0: NO) | 3390 nM | 0.001 µM | – |
| Cc1cc(=O)c(-c2cccc(Oc3ccc(Cl)cc3)c2)c(C)[nH]1 [TCMDC-137415] | 1 (1: YES) | 51.13% | 85.04% | 710 nM | 706 nM | 396 nM | 35.48 µM | 35.48 µM | 35500 nM | – | – | – | – |
| CNC(=O)c1cc(F)c(F)cc1Nc1nc(Nc2cccc(CS(C)(=O)=O)c2)ncc1Cl.O=CO [TCMDC-134060] | – | 53.04% | 41.11% | – | 2150 nM | 1570 nM | – | – | 100000 nM | 1 (key: 1: YES; 0: NO) | 2150 nM | 100.00 µM | – |
| CC1(C)N=C(N)N=C(N)N1OCCCc1ccccc1.Cl [TCMDC-131689] | 0 (0: NO) | 42.43% | 56.50% | 2540 nM | 2540 nM | < 0.2 nM | 0.001 µM | 0.001 µM | 1 nM | – | – | – | – |
| COc1ccc2ncc(C#N)c(CCN3CCC(NCc4ccc5c(c4)NC(=O)CO5)CC3)c2c1.Cl [TCMDC-135645] | – | 122.09% | 92.16% | – | 457 nM | 553 nM | – | – | 38900 nM | 1 (key: 1: YES; 0: NO) | 460 nM | 38.90 µM | – |
| COCCn1c(-c2cccc(Cl)c2)nn(-c2ccc([N+](=O)[O-])cc2Cl)c1=S [TCMDC-135130] | 1 (1: YES) | 51.94% | 48.77% | – | 1600 nM | 947 nM | – | – | 100000 nM | – | – | – | 100.00 µM |
| CCCCCCCc1c(C)nc2c(OC)cccc2c1O [TCMDC-138016] | – | 91.04% | 66.93% | – | 529 nM | 195 nM | – | – | 100000 nM | 1 (key: 1: YES; 0: NO) | 530 nM | 100.00 µM | – |
| NC(=O)c1ccccc1Nc1nc(Nc2cc[nH]n2)ncc1Cl [TCMDC-134169] | – | 78.38% | 61.96% | – | 513 nM | 2310 nM | – | – | 13200 nM | 1 (key: 1: YES; 0: NO) | 510 nM | 13.18 µM | – |
| CCCCCCCc1ccc(-c2c(C)[nH]c(C)c(Cl)c2=O)cn1 [TCMDC-135816] | 1 (1: YES) | 56.53% | 81.98% | 580 nM | 581 nM | 355 nM | 30.90 µM | 30.90 µM | 30900 nM | – | – | – | – |
| CNC(=O)c1ccccc1Nc1nc(Nc2ccc(N3CCOCC3)cc2)ncc1Cl.Cl [TCMDC-134144] | – | 67.63% | 105.55% | – | 387 nM | 1990 nM | – | – | 3630 nM | 0 (key: 1: YES; 0: NO) | 390 nM | 3.63 µM | – |
| CC1=CC(=O)[C@@H](O)[C@]2(C)[C@H]3[C@@]4(O)OC[C@@]35[C@@H](C[C@@H]12)OC(=O)C[C@H]5[C@@H](C)[C@H]4O [TCMDC-142261] | 1 (1: YES) | 102.04% | 101.98% | 54.9 nM | 55 nM | 109 nM | – | – | 26300 nM | – | – | – | 26.30 µM |
| Cc1cc(SC(C)(C)C)cc2c(Cl)c(C(N)=O)cnc12 [TCMDC-135415] | 0 (0: NO) | 28.78% | 60.54% | 2710 nM | 2710 nM | 69 nM | – | – | 1360 nM | – | – | – | 1.36 µM |
| COc1ccc(Cn2c(Nc3cccc(C(F)(F)F)c3)nc3cc(C(=O)NC(C)C)cnc32)cc1Cl [TCMDC-138556] | 0 (0: NO) | 25.40% | 50.20% | 5440 nM | 5440 nM | 1400 nM | – | – | 51300 nM | – | – | – | 51.29 µM |
| Cc1[nH]c(C)c(-c2ccc(OCc3ccccc3)cc2)c(=O)c1Br [TCMDC-138901] | – | 91.81% | 92.28% | – | 224 nM | 108 nM | – | – | 100000 nM | 1 (key: 1: YES; 0: NO) | 220 nM | 100.00 µM | – |
| CCc1c(C)nc(-n2nc(C)cc2NC(=O)c2ccc(OC)cc2OC)[nH]c1=O [TCMDC-124937] | – | 65.69% | 36.83% | – | 1510 nM | 10 nM | – | – | 10000 nM | 0 (key: 1: YES; 0: NO) | 1510 nM | 10.00 µM | – |
| CC1CN(Cc2ccccc2)CCN1c1ccc(NC(=O)c2cccs2)cc1.O=C(O)C(F)(F)F (stereo not shown) [TCMDC-135005] | – | 105.18% | 99.00% | – | 732 nM | 504 nM | – | – | 57500 nM | 1 (key: 1: YES; 0: NO) | 730 nM | 57.54 µM | – |
| COc1ccc(Nc2ncc(OC)c(Nc3ccccc3C(N)=O)n2)cc1N1CCN(C)CC1.O=CO [TCMDC-134149] | – | 85.24% | 71.46% | – | 270 nM | 846 nM | – | – | 13500 nM | 1 (key: 1: YES; 0: NO) | – | 13.49 µM | – |
